US6300368A, “Anilide derivatives and antiarrhythmic agents containing the same” (priority 1998, dated 2001)
Counter-ions that a name gives are not always drawn.

test system: aconitin-induced atrial fibrillation; experiment: Aconitin-induced atrial fibrillation model in anaesthetized dogs (Pharmacological Trial 1); type: in vivo, dog; settings: Canis lupus familiaris; intravenous, anesthetized dogs, as hydrochloride; read-out: minimum dose level which suppresses atrial fibrillation
Description: Pharmacological Trial 1: Evaluation of effectiveness in aconitin-induced atrial fibrillation model (dogs) Evaluation was performed according to K. Hashimoto (Jpn. J. Pharmacol., Vol. 46, 349-358, 1988) as follows:
Method: Dog was anesthetized and thoracotomy was made. Persistent atrial fibrillation was induced by placing a piece of filter paper impregnated with 0.5% aconitin solution (20 to 30 μl) on the right atrium. […] Onset and suppression of atrial fibrillation were monitored electrocardiographically by placing Ag--AgCl bipolar electrode on the right atrial auricle.
Results: Each compound in Examples 1 to 87 suppressed atrial fibrillation at least following dose level (all compounds were used in the form of hydrochloride).

CC(C)NCCOc1ccc(NC(=O)c2ccoc2)cc1.Cl [Example 35, 4'-[2-(Isopropylamino)ethoxy]-3-furanilide Hydrochloride] and COCCNCCOc1ccc(NC(=O)c2ccoc2)cc1.Cl [Example 45, 4'-[2-[(2-Methoxyethyl)amino]ethoxy]-3-furanilide Hydrochloride] are the same in minimal effective dose: 10 mg/kg for the first, 10 mg/kg for the second.

COCCC(=O)Nc1ccc(OCCNC(C)C)cc1.Cl [Example 36, 4'-[2-(Isopropylamino)ethoxy]-3-methoxypropananilide Hydrochloride] and COCCNCCOc1ccc(NC(=O)CCOC)cc1.Cl [Example 44, 4'-[2-[(2-Methoxyethyl)amino]ethoxy]-3-methoxy propananilide Hydrochloride] are the same in minimal effective dose: 10 mg/kg for the first, 10 mg/kg for the second.

CCCCNCCOc1ccc(NC(=O)c2c(OC)cccc2OC)cc1 [Example 37, 4'-[2-(Butylamino)ethoxy]-2,6-dimethoxybenzanilide] and COCCCNCCOc1ccc(NC(=O)c2c(OC)cccc2OC)cc1 [Example 48, 2,6-Dimethoxy-4'-[2-[(3-methoxypropyl)amino]ethoxy]benzanilide] are the same in minimal effective dose: 3 mg/kg for the first, 3 mg/kg for the second.

Going from COc1cccc(OC)c1C(=O)Nc1ccc(OCCNCC(C)C)cc1 [Example 38, 4'-[2-(Isobutylamino)ethoxy]-2,6-dimethoxybenzanilide] to COCCNCCOc1ccc(NC(=O)c2c(OC)cccc2OC)cc1 [Example 41, 4'-[2-[(2-Methoxyethyl)amino]ethoxy]-2,6-dimethoxy Benzanilide], the minimal effective dose rises from 3 mg/kg to 10 mg/kg (3.3-fold).

Compared with COc1cccc(OC)c1C(=O)Nc1ccc(OCCNC(C)(C)C)cc1 [Example 39, 2,6-Dimethoxy-4'-[2-(tert-butylamino)ethoxy]benzanilide], COc1cccc(OC)c1C(=O)Nc1ccc(OCCNC2CC2)cc1 [Example 50, 4'-[2-(Cyclopropylamino)ethoxy]-2,6-dimethoxybenzanilide] is 3.3-fold lower in minimal effective dose: 10 mg/kg for the first, 3 mg/kg for the second.

Compared with CC(C)(C)NCCOc1ccc(NC(=O)c2ccccc2NS(C)(=O)=O)cc1 [Example 40, 2-Methanesulfonamido-4'-[2-(tert-butylamino)ethoxy]benzanilide], COCCNCCOc1ccc(NC(=O)c2ccccc2NS(C)(=O)=O)cc1 [Example 42, 2-Methanesulfonamido-4'-[2-[(2-methoxyethyl)amino]ethoxy]benzanilide] is 10-fold higher in minimal effective dose: 0.3 mg/kg for the first, 3 mg/kg for the second.

Going from COCCNCCOc1ccc(NC(=O)C2CCOC2)cc1.Cl (centres unmarked) [Example 43, 4'-[2-[(2-Methoxyethyl)amino]ethoxy]-2,3,4,5-tetrahydro-3-furanilide Hydrochloride] to Cl.O=C(Nc1ccc(OCCNC2CC2)cc1)C1CCOC1 (centres unmarked) [Example 51, 4'-[2-(Cyclopropylamino)ethoxy]-2,3,4,5-tetrahydro-3-furanilide Hydrochloride], the minimal effective dose falls from 10 mg/kg to 3 mg/kg (3.3-fold).

Compared with CCOCCNCCOc1ccc(NC(=O)c2c(OC)cccc2OC)cc1 [Example 46, 4'-[2-[(2-Ethoxyethyl)amino]ethoxy]-2,6-dimethoxy Benzanilide], COc1cccc(OC)c1C(=O)Nc1ccc(OCCNC2CCCCC2)cc1 [Example 55, 4'-[2-(Cyclohexylamino)ethoxy]-2,6-dimethoxybenzanilide] is 33-fold lower in minimal effective dose: 10 mg/kg for the first, 0.3 mg/kg for the second.

Going from CCOCCNCCOc1ccc(NC(=O)c2ccccc2NS(C)(=O)=O)cc1 [Example 47, 4'-[2-[(2-Ethoxyethyl)amino]ethoxy]-2-(methanesulfonamido)benzanilide] to COCCCNCCOc1ccc(NC(=O)c2ccccc2NS(C)(=O)=O)cc1.Cl [Example 49, 2-Methanesulfonamido-4'-[2-[(3-methoxypropyl)amino]ethoxy]benzanilide Hydrochloride], the minimal effective dose rises from 3 mg/kg to 10 mg/kg (3.3-fold).

First: O=C(Nc1ccc(OCCNC2CC2)cc1)C1CCOCC1 [Example 52, 4'-[2-(Cyclopropylamino)ethoxy]-3,4,5,6-tetrahydro-2H-pyran-4-carboxanilideHydrochloride]
Second: COCCC(=O)Nc1ccc(OCCNC2CC2)cc1 [Example 53, 4'-[2-(Cyclopropylamino)ethoxy]-3-methoxypropananilide]
The minimal effective dose of the first is 3.3-fold lower: 3 mg/kg for the first, 10 mg/kg for the second.

CS(=O)(=O)Nc1ccccc1C(=O)Nc1ccc(OCCNC2CCCC2)cc1 [Example 54] and CS(=O)(=O)Nc1cc(NC(=O)c2ccccc2NS(C)(=O)=O)ccc1OCCNC1CCCC1.Cl [Example 68, 4'-[2-(Cyclopentylamino)ethoxy]-2-methanesulfonamido-3'-(methanesulfonamido)benzanilide Hydrochloride] are the same in minimal effective dose: 10 mg/kg for the first, 10 mg/kg for the second.

CCNCCOc1ccc(NC(=O)c2ccoc2)cc1OC.Cl [Example 56, 4'-[2-(Ethylamino)ethoxy]-3'-methoxy-3-furanilide Hydrochloride] and COc1cc(NC(=O)c2ccoc2)ccc1OCCNC(C)C.Cl [Example 60, 4'-[2-(Isopropylamino)ethoxy]-3'-methoxy-3-furanilide Hydrochloride] are the same in minimal effective dose: 10 mg/kg for the first, 10 mg/kg for the second.

Going from COCCC(=O)Nc1ccc(OCCNC(C)C)c(OC)c1 [Example 57, 4'-[2-(Isopropylamino)ethoxy]-3-methoxy-3-methoxypropananilide] to COCCC(=O)Nc1ccc(OCCNC(C)C)c(C)c1.Cl [Example 78, 4'-[2-(Isopropylamino)ethoxy]-3-methoxy-3'-methylpropananilide Hydrochloride], the minimal effective dose falls from 10 mg/kg to 3 mg/kg (3.3-fold).

COc1cc(NC(=O)c2ccccc2NS(C)(=O)=O)ccc1OCCNC(C)C [Example 58, 4'-[2-(Isopropylamino)ethoxy]-2-meth anesulfonamido-3'-methoxybenzanilide] and Cc1cc(NC(=O)c2ccccc2NS(C)(=O)=O)ccc1OCCNC(C)C.Cl [Example 75, 4'-[2-(Isopropylamino)ethoxy]-2-methanesulfonamido-3'-methylbenzanilide Hydrochloride] are the same in minimal effective dose: 10 mg/kg for the first, 10 mg/kg for the second.

First: COc1cc(NC(=O)c2ccccc2S(C)(=O)=O)ccc1OCCNC(C)C.Cl [Example 59, 4'-[2-(Isopropylamino)ethoxy]-2-methanesulfonyl-3'-methoxybenzanilide Hydrochloride]
Second: Cc1cc(NC(=O)c2ccccc2S(C)(=O)=O)ccc1OCCNC(C)C.Cl [Example 76, 4'-[2-(Isopropylamino)ethoxy]-2-methanesulfonyl-3'-methylbenzanilide Hydrochloride]
The minimal effective dose of the first is 3.3-fold higher: 10 mg/kg for the first, 3 mg/kg for the second.

COCCC(=O)Nc1ccc(OCCNC2CCCC2)c(OC)c1 [Example 61, 4'-[2-(Cyclopentylamino)ethoxy]-3'-methoxy-3-methoxypropananilide] and COc1cc(NC(=O)c2c(OC)cccc2OC)ccc1OCCNC1CCCC1.Cl [Example 62, 4'-[2-(Cyclopentylamino)ethoxy]-2,6-dimethoxy-3'-methoxybenzanilide Hydrochloride] are the same in minimal effective dose: 10 mg/kg for the first, 10 mg/kg for the second.

Going from CCN(CC)CCOc1ccc(NC(=O)c2c(OC)cccc2OC)cc1OC [Example 63, 4'-[2-(Diethylamino)ethoxy]-2,6-dimethoxy-3-methoxybenzanilide] to CCN(CC)CCOc1ccc(NC(=O)c2c(OC)cccc2OC)c(C)c1 [Example 73, 4'-[2-(Diethylamino)ethoxy]-2-dimethoxy-2'-methyl Benzanilide], the minimal effective dose falls from 10 mg/kg to 3 mg/kg (3.3-fold).

COc1cccc(OC)c1C(=O)Nc1ccc(OCCNC(C)C)cc1NS(C)(=O)=O [Example 64, 4'-[2-(Isopropylamino)ethoxy]-2'-methanesulfonamido-2,6-dimethoxybenzaniideHydrochloride] and COc1cccc(OC)c1C(=O)Nc1ccc(OCCNC(C)C)c(NS(C)(=O)=O)c1 [Example 65, 4'-[2-(Isopropylamino)ethoxy]-3'-methanesulfonamido-2,6-dimethoxybenzanilide] are the same in minimal effective dose: 10 mg/kg for the first, 10 mg/kg for the second.

CC(C)NCCOc1ccc(NC(=O)c2ccccc2NS(C)(=O)=O)cc1NS(C)(=O)=O.Cl [Example 66, 4'-[2-(Isopropylamino)ethoxy]-2-methanesulfonamido-3'-(methanesulfonamido)benzanilide Hydrochloride] and Cc1cc(OCCNC(C)C)ccc1NC(=O)c1ccccc1NS(C)(=O)=O.Cl [Example 70, 4'-[2-(Isopropylamino)ethoxy]-2-methanesulfonamido-2'-methylbenzanilide Hydrochloride] are the same in minimal effective dose: 3 mg/kg for the first, 3 mg/kg for the second.

First: CC(C)NCCOc1ccc(NC(=O)c2ccoc2)cc1NS(C)(=O)=O.Cl [Example 67, 4'-[2-(Isopropylamino)ethoxy]-3'-methanesulfonamido-3-furanilide Hydrochloride]
Second: Cc1cc(OCCNC(C)C)ccc1NC(=O)c1ccoc1.Cl [Example 72, 4'-[2-(Isopropylamino)ethoxy]-2'-methyl-3-furanilide Hydrochloride]
The minimal effective dose of the first is 3.3-fold higher: 10 mg/kg for the first, 3 mg/kg for the second.

COc1cccc(OC)c1C(=O)Nc1ccc(OCCNC(C)C)cc1C.Cl [Example 69, 4'-[2-(Isopropylamino)ethoxy]-2,6-dimethoxy-2'-methyl benzanilide Hydrochloride] and COc1cccc(OC)c1C(=O)Nc1ccc(OCCNC(C)C)c(C)c1.Cl [Example 74, 4'-[2-(Isopropylamino)ethoxy]-2,6-dimethoxy-3'-methylbenzanilide Hydrochloride] are the same in minimal effective dose: 3 mg/kg for the first, 3 mg/kg for the second.

First: COCCC(=O)Nc1ccc(OCCNC(C)C)cc1C [Example 71, 4'-[2-(Isopropylamino)ethoxy]-3-methoxy-2'-methylpropananilide]
Second: Cc1cc(NC(=O)C2CCOCC2)ccc1OCCNC(C)C.Cl [Example 77, 4'-[2-(Isopropylamino)ethoxy]-3'-methyl-3,4,5,6-tetrahydro-2H-pyran-4-carboxanilide Hydrochloride]
The minimal effective dose of the first is 3.3-fold lower: 3 mg/kg for the first, 10 mg/kg for the second.
